Earlier results as cited in patent publication US20070208072A1, “Maleate salt of tegaserod and crystalline forms thereof” (priority 2006, published 2007).

Settings: white to off-white crystalline powder

solubility in ethanol (ethanol): slightly soluble
solubility in water (water): very slightly soluble
SMILES: CCCCCNC(=N)N/N=C/c1c[nH]c2ccc(OC)cc12.O=C(O)/C=C\C(=O)O [Tegaserod maleate]
